Reference: patent EP0894794A1, “Optical isomers of cloperastine” (AESCULAPIUS FARMACEUTICI S.r.l., priority 1997, dated 1999)
Marks after values point to notes of the source that are not given here.

Assays:
[1] = acute toxicity (LD50), rat; details: rat, in vivo, ip, LD50 and 95% conf. lim., HCl; female rat; intraperit.
rat = assay: acute toxicity (LD50), rat; details: HCl, female rat
[2] = acute toxicity (LD50), mouse; details: mouse, in vivo, LD50 and 95% conf. lim., HCl, female mouse
guinea pigs = assay: citric acid aerosol coughing test; details: for ED50 / inhibition at 1 mg/kg / inhibition at 5 mg/kg / inhibition at 10 mg/kg: Cavia porcellus, inhaled or nasal; for inhibition at 1 mg/kg / inhibition at 5 mg/kg / inhibition at 10 mg/kg: read-out: inhib. %; for coughs in 3 min mean + SD: fendizoate, guinea pigs, 8 animals
mouse [3] = assay: narcosis from hexobarbital (interaction with central depressants); details: fendizoate; for Duration of sleep: mean ± SD after intraperitoneal 80 mg/kg sodium hexobarbital, mouse; for % variation: sleeping time vs. vehicle controls
mouse [4] = assay: test of potentiation of pentylenetetrazole (interaction with central stimulants); details: fendizoate, dose 150 mg/kg; for % variation: mean score vs. vehicle controls; for Mean score: scores 0 to 4 after intraperitoneal 50 mg/kg PTZ, mouse, 20 animals
mouse [5] = assay: acute toxicity (LD50), mouse; details: HCl, female mouse

Compound: Clc1ccc(C(OCCN2CCCCC2)c2ccccc2)cc1 (single isomer, unassigned) [L-CLO, L(-) cloperastine]
- LD50 [1]: 195 mg/kg
- LD50 and 95% conf. lim. (rat; oral): 1226 (981-1532) mg/kg
- LD50 ([2]; ip, intraperit.): 171 mg/kg
- LD50 ([2]; po): 512 mg/kg
- ED50 (guinea pigs): 4.23 mg/kg
- inhibition at 1 mg/kg (guinea pigs): 32.7%
- inhibition at 5 mg/kg (guinea pigs): 45.4%
- inhibition at 10 mg/kg (guinea pigs): 66.3%
- coughs in 3 min mean + SD (guinea pigs; dose 1 mg/kg): 44.5 ± 8.65
- coughs in 3 min mean + SD (guinea pigs; dose 5 mg/kg): 36.1 ± 5.24
- coughs in 3 min mean + SD (guinea pigs; dose 10 mg/kg): 22.3 ± 5.20
- Duration of sleep (mouse [3]; dose 5 mg/kg): 38.90 ± 7.89 min
- % variation (mouse [3]; dose 5 mg/kg, 5 mg/kg): +16.5%
- Duration of sleep (mouse [3]; dose 15 mg/kg): 67.60 ± 16.75 min
- % variation (mouse [3]; dose 15 mg/kg, 15 mg/kg): +102.3** %
- Duration of sleep (mouse [3]; dose 50 mg/kg): 43.10 ± 9.07 min
- % variation (mouse [3]; dose 50 mg/kg, 50 mg/kg): +29.0(°) %
- Duration of sleep (mouse [3]; dose 150 mg/kg): 18.70 ± 2.87 min
- % variation (mouse [3]; dose 150 mg/kg, 150 mg/kg): -44.1** %
- % variation (mouse [4]; 150 mg/kg): 36.4%
- Mean score (mouse [4]): 1.50

Compound: Clc1ccc(C(OCCN2CCCCC2)c2ccccc2)cc1 (racemic) [DL-CLO, DL-cloperastine]
- ED50 (guinea pigs): 7.22 mg/kg
- inhibition at 1 mg/kg (guinea pigs): 13.5%
- inhibition at 5 mg/kg (guinea pigs): 41.9%
- inhibition at 10 mg/kg (guinea pigs): 57.2%
- coughs in 3 min mean + SD (guinea pigs; dose 1 mg/kg): 57.7 ± 8.21
- coughs in 3 min mean + SD (guinea pigs; dose 5 mg/kg): 38.4 ± 5.33
- coughs in 3 min mean + SD (guinea pigs; dose 10 mg/kg): 28.3 ± 4.50
- Duration of sleep (mouse [3]; dose 5 mg/kg): 53.80 ± 9.05 min
- % variation (mouse [3]; dose 5 mg/kg): +61.1**(°°) %
- Duration of sleep (mouse [3]; dose 15 mg/kg): 45.50 ± 6.39 min
- % variation (mouse [3]; dose 15 mg/kg): +36.2**(°) %
- Duration of sleep (mouse [3]; dose 50 mg/kg): 25.80 ± 7.30 min
- % variation (mouse [3]; dose 50 mg/kg): -22.8(°°) %
- Duration of sleep (mouse [3]; dose 150 mg/kg): 10.40 ± 4.18 min
- % variation (mouse [3]; dose 150 mg/kg): -68.9** %
- % variation (mouse [4]): 122.7%
- Mean score (mouse [4]): 2.45**(°°)

Compound: Clc1ccc(C(OCCN2CCCCC2)c2ccccc2)cc1 (single isomer, unassigned) [D-CLO, D(+) cloperastine]
- LD50 and 95% conf. lim. (rat; intraperit.): 106 (82-138) mg/kg
- LD50 and 95% conf. lim. (rat; oral): 602 (474-764) mg/kg
- LD50 and 95% conf. lim. (mouse [5]; intraperit.): 96 (74.4-123.8) mg/kg
- LD50 and 95% conf. lim. (mouse [5]; oral): 269 (219-331) mg/kg
- Duration of sleep (mouse [3]; dose 5 mg/kg): 71.70 ± 10.92 min
- % variation (mouse [3]; dose 5 mg/kg, 5 mg/kg): +114.7**(°°) %
- Duration of sleep (mouse [3]; dose 15 mg/kg): 45.80 ± 8.67 min
- % variation (mouse [3]; dose 15 mg/kg, 15 mg/kg): +37.1*(°) %
- Duration of sleep (mouse [3]; dose 50 mg/kg): 22.40 ± 6.37 min
- % variation (mouse [3]; dose 50 mg/kg, 50 mg/kg): -32.9*(°°) %
- Duration of sleep (mouse [3]; dose 150 mg/kg): 8.90 ± 3.01 min
- % variation (mouse [3]; dose 150 mg/kg, 150 mg/kg): -73.4**(°°) %
- % variation (mouse [4]; 150 mg/kg): 186.4%
- Mean score (mouse [4]): 3.15**(°°)
